Consider 19 compounds from patent US20210221785A1, “AMINO-PYRIMIDONYL DERIVATIVES, A PROCESS FOR THEIR PREPARATION AND PHARMACEUTICAL COMPOSITIONS CONTAINING THEM” (LES LABORATOIRES SERVIER, priority 2018, published 2021).

The target of assay [1] is T1, His-His-USP7 (aa208-560, |C315A|) (Homo sapiens, UniProt Q93009, C315A).
T1 construct: His-His-USP7 (aa208-560, |C315A|); His-His (N)
As to the kind of experiment: Evaluation of the inhibition of USP7 by the Fluorescence Intensity (FLINT) readings. It is filed as biochemical. The note with it: 0.25 nM His-His-USP7, compound incubated 60 minutes at 30° C., 500 nM Ubiquitin-Rhodamine-110 substrate; 50% reduction in kinetic rate. As to the method: USP7 activity was measured using Rhodamine-110 c-terminal labelled Ubiquitin as a substrate (UbiQ Bio). Incubation with USP7 results in the release of Rhodamine-110 leading to an increase in fluorescence which can be used in the continuous measurement of USP7 activity.
The USP7 reactions were performed in a 50 μL volume, in 384 well black solid low binding plates (Corning #3575). The reaction buffer consisted of 100 mM Bicine pH 8.0, 0.01% TritonX100, 1 mM TCEP, and 10% DMSO.
0.25 nM His-His-USP7 (aa208-560, |C315A|) was incubated with compound (final concentration 10% DMSO) for 60 minutes at 30° C. The reaction was then initiated by the addition of 500 nM Ubiquitin-Rhodamme-110 substrate and the plate read every 3 minutes for 21 minutes to measure the release of Rhodamine-110. Fluorescence Intensity (FLINT) readings were measured using a […] plate reader (Ex.485 nm, Em.535 nm).
The inhibition of increasing doses of compound was expressed as a percentage reduction in kinetic rate compared to the kinetic rates established between ‘DMSO only’ and ‘total inhibition’ controls (no USP7). The inhibitory concentrations that gave a 50% reduction in kinetic rate (IC50) were determined, from 11-point dose response cures, in XL-Fit using a 4-Parameter Logistic Model 205 (Sigmoidal Dose-Response Model).

The subject of assay [2] is Z138 mantle cell lymphoma tumour cell lines. As to the kind of experiment: In vitro cytotoxicity, MTT assay. In kind it is cell-based. The note with it: Z138 cells exposed to the test compounds for 96 hours, cell viability vs DMSO treated cells. As to the method:
The cytotoxicity studies were evaluated by MTT [3-(4,5-dimethylthiazol-2-yl)-2,5-diphenyltetrazolium bromide] assay and carried out on Z138 mantle cell lymphoma tumour cell lines. The cells are distributed onto microplates and exposed to the test compounds for 96 hours. MTT is then added for 4 hours and converted by NAD(P)H-dependent cellular oxidoreductase enzymes in formazan, which has a purple color. The viable cell number is proportional to the production of formuan salts and cell viability can be quantified by the absorbance of the solution at 540 nm with a speetrophotometer (Carmichael et al., Cancer Res. 1987, 47, 936-942).

T1 sequence (Q93009 208-560 C315A): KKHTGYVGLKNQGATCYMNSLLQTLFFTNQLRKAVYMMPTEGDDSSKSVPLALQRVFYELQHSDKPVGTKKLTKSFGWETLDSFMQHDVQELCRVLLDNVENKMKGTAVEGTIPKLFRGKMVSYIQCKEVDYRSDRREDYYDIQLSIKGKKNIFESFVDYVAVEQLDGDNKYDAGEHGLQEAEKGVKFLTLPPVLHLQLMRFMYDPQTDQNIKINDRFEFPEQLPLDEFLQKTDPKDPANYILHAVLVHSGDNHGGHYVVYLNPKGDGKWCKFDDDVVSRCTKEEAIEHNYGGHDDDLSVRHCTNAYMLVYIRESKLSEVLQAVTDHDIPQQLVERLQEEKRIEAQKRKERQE

For the compound “5-amino-6-(3-chlorophenyl)-3-({1-[(1R,2R)-4,4-difluoro-2-phenylcyclohexane-1-carbonyl]-4-hydroxypiperidin-4-yl}methyl)pyrimidin-4(3H)-one [Example 13]”, the results for the IC50 in assay [1] and in assay [2] were 97.5 nM and 0.178 µM, respectively.

As for `C#C[C@]1(O)CC[C@@H](C(=O)N2CCC(O)(Cn3cnc(Oc4ccc(F)cc4)c(N)c3=O)CC2)[C@H](c2ccccc2)C1` (relative stereo) [Example 92, rel-5-amino-3-[(1-{[(1R,2R,4S)-4-ethynyl-4-hydroxy-2-phenyl-cyclohexyl]carbonyl}-4-hydroxypiperidin-4-yl)methyl]-6-(4-fluorophenoxy)pyrimidin-4-one], the IC50 (commonly the concentration at which inhibition is half-maximal) in assay [1] was 230 nM; in assay [2] (Homo sapiens, Z-138, 96 h), 0.189 µM.

Consider `C#CC1(F)CC[C@@H](C(=O)N2CCC(O)(Cn3cnc(Oc4ccc(F)cc4)c(N)c3=O)CC2)[C@H](c2ccccc2)C1` (relative stereo) [Example 93, rel-5-amino-3-({1-[(1R,2R)-4-ethynyl-4-fluoro-2-phenyl-cyclohexanecarbonyl]-4-hydroxypiperidin-4-yl}methyI)-6-(4-fluorophenoxy)-3,4-dihydropyrimidin-4-one], for which the IC50 in assay [1] stood at 66.3 nM; in assay [2] (Homo sapiens, Z-138, 96 h) it was 0.0411 µM.

In the case of `Nc1c(Oc2ccc(F)cc2)ncn(CC2(O)CCN(C(=O)[C@@H]3CC[C@](O)(Cc4ccccc4)C[C@H]3c3ccccc3)CC2)c1=O` (relative stereo) [Example 94, rel-5-amino-3-({1-[(1R,2R,4R)-4-benzyl-4-hydroxy-2-phenyl-cyclohexanecarbonyl]-4-hydroxypiperidin-4-yl}methyl)-6-(4-fluorophenoxy)-3,4-dihydropyrimidin-4-one], the IC50 was found to be 63.4 nM in assay [1] and 0.0494 µM in assay [2] (Homo sapiens, Z-138, 96 h).

`Nc1c(Oc2ccc(F)cc2)ncn(CC2(O)CCN(C(=O)[C@@H]3CC[C@@](O)(Cc4ccccc4)C[C@H]3c3ccccc3)CC2)c1=O` (relative stereo) [Example 95, rel-5-amino-3-({1-[(1R,2R,4S)-4-benzyl-4-hydroxy-2-phenyl-cyclohexanecarbonyl]-4-hydroxypiperidin-4-yl}methyl)-6-(4-fluorophenoxy)-3,4-dihydropyrimidin-4-one]: the IC50 worked out at 172 nM in assay [1] and 0.253 µM in assay [2] (Homo sapiens, Z-138, 96 h).

Turning to `Nc1c(Oc2ccc(F)cc2)ncn(CC2(O)CCN(C(=O)[C@@H]3CC[C@](O)(Cc4ccccn4)C[C@H]3c3ccccc3)CC2)c1=O` (relative stereo) [Example 96, rel-5-amino-6-(4-fluorophenoxy)-3-({4-hydroxy-1-[(1R,2R,4R)-4-hydroxy-2-phenyl-4-](pyridin-2-yl)methyl]cyclohexanecarbonyl]piperidin-4-yl}methyl)-3,4-dihydropyrimidin-4-one], the half-maximal inhibitory concentration (IC50) stood at 109 nM in assay [1] and 0.116 µM in assay [2] (Homo sapiens, Z-138, 96 h).

For the compound `Nc1c(Oc2ccc(F)cc2)ncn(CC2(O)CCN(C(=O)[C@@H]3CC[C@@](O)(Cc4ccccn4)C[C@H]3c3ccccc3)CC2)c1=O` (relative stereo) [Example 97, rel-5-amino-6-(4-fluorophenoxy)-3-[(4-hydroxy-1-{[(1R,2R,4S)-4-hydroxy-2-phenyl-4-(pyridin-2-ylmethyl)cyclohexyl]carbonyl}piperidin-4-yl)methyl]pyrimidin-4-one], the IC50 is 38.2 nM in assay [1] and 0.497 µM in assay [2] (Homo sapiens, Z-138, 96 h).

`Nc1c(Oc2ccc(F)cc2)ncn(CC2(O)CCN(C(=O)C3CCC(O)(Cc4ccc(F)cc4)CC3c3ccccc3)CC2)c1=O` [Example 99, rel-5-amino-6-(4-fluorophenoxy)-3-({1-[(1R,2R,4R)-4-[(4-fluorophenyl))methyl]-4-hydroxy-2-phenylcyclohexanecarbonyl]-4-hydroxypiperidin-4-yl}methyl)-3,4-dihydropyrimidin-4-one] yielded a 50% inhibitory concentration (IC50) in assay [2] (Homo sapiens, Z-138, 96 h) of 0.0128 µM.

For the compound `NC(=O)c1ccc(Oc2ncn(CC3(O)CCN(C(=O)[C@@H]4CCC(F)(F)C[C@H]4c4ccccc4)CC3)c(=O)c2N)c(Cl)c1` [Example 107, 4-{[5-amino-1-({1-[(1R,2R)-4,4-difluoro-2-phenylcyclohexane-1-carbonyl]-4-hydroxypiperidin-4-yl}methyl)6-oxo-1,6-dihydropyrimidin-4-yl]oxy}-3-chlorobenzamide], the IC50 in assay [1] stood at 479 nM.

For `Nc1c(Oc2ccc(CCC3CCNCC3)cc2)ncn(CC2(O)CCN(C(=O)[C@@H]3CCC(F)(F)C[C@H]3c3ccccc3)CC2)c1=O` [Example 112, 5-amino-3-([1-[(1R,2R)-4,4-difluoro-2-phenylcyclohexane-1-carbonyl]-4-hydroxypiperidin-4-yl]methyl)-6-[4-[2-(piperidin-4-yl)ethyl]phenoxy]pyrimidin-4(3H)-one], in assay [1], inhibition was half-maximal at 70.8 nM (IC50). This IC50 lies about 6.8-fold lower than the previous one.

As to `Nc1c(Oc2ccc(CN3CCOCC3)cc2)ncn(CC2(O)CCN(C(=O)[C@@H]3CCC(F)(F)C[C@H]3c3ccccc3)CC2)c1=O` [Example 113, 5-amino-3-({1-[(1R,2R)-4,4-difluoro-2-phenylcyclohexane-1-carbonyl]-4-hydroxypiperidin-4-yl}methyl)-6-{4-[(morpholin-4-yl)methyl]phenoxyl}pyrimidin-4(3H)-one], in assay [1], inhibition was half-maximal at 140 nM (IC50). Against the preceding compound, the IC50 is about 2-fold higher.

As for `Nc1c(Oc2ccc(CCC3CCCCN3)cc2)ncn(CC2(O)CCN(C(=O)[C@@H]3CCC(F)(F)C[C@H]3c3ccccc3)CC2)c1=O` (stereo partly drawn) [Example 114, 5-amino-3-({1-[(1R,2R)-4,4-difluoro-2-phenylcyclohexane-1-carbonyl]-4-hydroxypiperidin-4-yl}methyl)-6-{4-[2-(piperidin-2-yl)ethyl]phenoxy}pyrimidin-4(3H)-one], the IC50 in assay [1] was found to be 48.7 nM.

In assay [1], `Nc1c(Oc2ccc([C@@H](N)C(F)(F)F)cc2)ncn(CC2(O)CCN(C(=O)[C@@H]3CCC(F)(F)C[C@H]3c3ccccc3)CC2)c1=O` [Example 116, 5-amino-6-{4-[(1R)-1-amino-2,2,2-trifluoroethyl]phenoxy}-3-({1-[(1R,2R)-4,4-difluoro-2-phenylcyclohexane-1-carbonyl]-4-hydroypiperidin-4-yl}methyl)pyrimidin-4(3H)-one] had an IC50 of 86.2 nM.

`Nc1c(Oc2ccc(F)cc2)ncn(CC2(O)CCN(C(=O)[C@@H]3CC[C@@](F)(C#Cc4ccccn4)C[C@H]3c3ccccc3)CC2)c1=O` [Example 131, 5-amino-3-[(1-{[(1R,2R,4S)-4-fluoro-2-phenyl-4-[2-(pyridin-2-yl)ethynyl]cyclohexyl]carbonyl}-4-hydroxypiperidin-4-yl)methyl]-6-(4-fluorophenoxy)pyrimidin-4-one] showed a concentration for half-maximal inhibition (IC50) in assay [1] of 21.8 nM. Against the preceding compound, the IC50 is about 4-fold lower.

In the case of `Nc1c(Oc2ccc(F)cc2)ncn(CC2(O)CCN(C(=O)[C@@H]3CC[C@](F)(C#Cc4ccccc4)C[C@H]3c3ccccc3)CC2)c1=O` [Example 135, 5-amino-3-({1-[(1R,2R,4R)-4-fluoro-2-phenyl-4-(2-phenylethynyl)cyclohexanecarbonyl]-4-hydroxypiperidin-4-yl}methyl)-6-(4-fluorophenoxy)-3,4-dihydropyrimidin-4-one], the half-inhibitory concentration (IC50) in assay [1] stood at 36.4 nM. This IC50 lies about 1.7-fold higher than the previous one.

As for `Nc1c(Oc2ccc(F)cc2)ncn(CC2(O)CCN(C(=O)[C@@H]3CC[C@@](F)(C#Cc4ccccc4)C[C@H]3c3ccccc3)CC2)c1=O` [Example 136, 5-amino-3-({1-[(1R,2R,4S)-4-fluoro-2-phenyl-4-(2-phenylethynyl)cyclobexanecarbonyl]-4-hydroxypiperidin-4-yl}methyl)-6-(4-fluorophenoxy)-3,4-dihydropyrimidin-4-one], the IC50 in assay [1] is 197 nM.

As for `C#C[C@@]1(OC)CC[C@@H](C(=O)N2CCC(O)(Cn3cnc(Oc4ccc(F)cc4)c(N)c3=O)CC2)[C@H](c2ccccc2)C1` [Example 155, 5-amino-3-[(1-{[(1R,2R,4R)-4-ethynyl-4-methoxy-2-phenylcyclohexyl]carbonyl}-4-hydroxypiperidin-4-yl)methyl]-6-(4-fluorophenoxy)pyrimidin-4-one], in assay [1], the half-maximal inhibitory concentration (IC50) was found to be 179 nM.

In assay [1], `Nc1c(Oc2ccc(F)cc2)ncn(CC2(O)CCN(C(=O)[C@@H]3CC[C@@](F)(C#Cc4cc(F)ccn4)C[C@H]3c3ccccc3)CC2)c1=O` [Example 158, 5-amino-3-({1-[(1R,2R,4S)-4-fluoro-4-[2-(4-fluoropyridin-2-yl)ethynyl]-2-phenylcyclohexanecarbonyl]-4-hydroxypiperidin-4-yl}methyl)-6-(4-fluorophenoxy)-3,4-dihydropyrimidin-4-one] registered an IC50 of 67.7 nM.

As for `CO[C@]1(C(=O)N2CCC(O)(Cn3cnc(Oc4ccc(F)cc4)c(N)c3=O)CC2)CC[C@H](C#Cc2nccn2C)C[C@@H]1c1ccccc1` [Example 160, 5-amino-6-(4-fluorophenoxy)-3-[(4-hydroxy-1-{[(1R,2R,4S)-1-methoxy-4-[2-(1-methylimidazol-2-yl)ethynyl]-2-phenylcyclohexyl]carbonyl}piperidin-4-yl)methyl]pyrimidin-4-one], in assay [1], the midpoint of inhibition, the IC50, lay at 138 nM.
